Laboratory results as given in patent US6777422B2, “Substituted tetrahydroisoquinolines as C5a receptor modulators” (Neurogen Corp., priority 2002, dated 2004).

The molecules below were run against T1, human C5a receptor (Homo sapiens, UniProt P21730) (assay: C5a receptor mediated calcium mobilization assay (Example 20)). Settings: differentiated U937 cells, read-out: Ca2+ (Ki in the standard assay of C5a receptor mediated calcium mobilization).
T1 construct: endogenous in cells; host or cells: U937 cells differentiated with 1 mM dibutyryl cAMP
T1 sequence (P21730 1-350): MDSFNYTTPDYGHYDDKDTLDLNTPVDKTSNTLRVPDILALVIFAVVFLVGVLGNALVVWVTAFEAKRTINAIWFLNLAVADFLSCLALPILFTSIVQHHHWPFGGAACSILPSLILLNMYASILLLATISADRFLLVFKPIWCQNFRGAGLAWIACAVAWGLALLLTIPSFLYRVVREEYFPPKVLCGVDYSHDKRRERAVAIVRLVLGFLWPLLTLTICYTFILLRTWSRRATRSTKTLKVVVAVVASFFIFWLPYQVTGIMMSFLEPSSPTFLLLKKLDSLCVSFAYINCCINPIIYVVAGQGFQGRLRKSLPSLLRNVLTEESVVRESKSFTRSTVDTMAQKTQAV
Type: cell-based
Protocol: Calcium Mobilization Assays
U937 cells are grown in differentiation media (1 mM dibutyryl cAMP in RPMI 1640 medium containing 10% fetal bovine serum) for 48 hrs at 37° C. then reseeded onto 96-well plates suitable for use in a FLIPR™ Plate Reader (Molecular Devices Corp., Sunnyvale Calif.). Cells are grown an additional 24 hours (to 70-90% confluence) before the assay. The cells are then washed once with Krebs Ringer solution. FLUO-3 calcium sensitive dye (Molecular Probes, Inc. Eugene, Oreg.) is added to 10 μg/mL and incubated with the cells at room temperature for 1 to 2 hours. The 96 well plates are then washed to remove excess dye. Fluorescence responses, measured by excitation at 480 nm and emission at 530 nm, are monitored upon the addition of human C5a to the cells to a final concentration of 0.01-30.0 nM, using the FLIPR™ device (Molecular Devices).
C. Assays for the Identification of Receptor Modulatory Agents: Antagonists and Agonists
The calcium mobilization assay described above may be readily adapted for identifying test compounds that have agonist or antagonist activity at the human C5a receptor.
For example, in order to identify antagonist compounds, differentiated U937 cells are washed and incubated with Fluo-3 dye as described above. One hour prior to measuring the fluorescence signal, a subset of the cells is incubated with 1 μM of at least one compound to be tested. The fluorescence response upon the subsequent addition of 0.3 nM (final concentration) human recombinant C5a is monitored using the FLIPR™ plate reader. Antagonist compounds elicit at least a 2-fold decrease in the fluorescence response relative to that measured in the presence of human C5a alone. Preferred antagonist compounds elicit at least a 5-fold, preferably at least a 10-fold, and more preferably at least a 20-fold decrease in the fluorescence response relative to that measured in the presence of human C5a alone.

Ki, < 1 µM:
C[C@@H](C(=O)N(Cc1ccccc1F)C1Cc2ccccc2C1)N1CCc2ccccc2[C@@H]1c1ccccc1Br [Compound 70, (2S)-2-[(1R)-1-(2-bromophenyl)-3,4-dihydroisoquinolin-2(1H)-yl]-N-(indan-2-yl)-N-(2-fluorobenzyl)propanamide]
Cc1cccc(C)c1[C@H]1c2ccccc2CCN1[C@@H](C)C(=O)N(Cc1ccccc1F)C1Cc2ccccc2C1 [Compound 71, (2S)-N-(indan-2-yl)-2-[(1R)-1-(2,6-dimethylphenyl)-3,4-dihydroisoquinolin-2(1H)-yl]-N-(2-fluorobenzyl)propanamide]
O=C(CN1CCc2ccccc2C1c1cccc(F)c1F)N(Cc1ccccc1F)C1Cc2ccccc2C1 (stereo not drawn) [Compound 74, 2-[1-(2,3-difluorophenyl)-3,4-dihydroisoquinolin-2(1H)-yl]-N-(indan-2-yl)-N-(2-fluorobenzyl)acetamide]
C[C@@H](C(=O)N(Cc1ccccc1F)C1Cc2ccccc2C1)N1CCc2ccccc2[C@@H]1c1cccc2c1OCC2 [Compound 75, (2S)-2-[(1R)-1-(2,3-dihydro-1-benzofuran-7-yl)-3,4-dihydroisoquinolin-2(1H)-yl]-N-(indan-2-yl)-N-(2-fluorobenzyl)propanamide]
COC(=O)c1ccc(C2c3ccccc3CCN2CC(=O)N(Cc2ccccc2F)C2Cc3ccccc3C2)cc1 (stereo not drawn) [Compound 76, methyl 4-(2-{2-[indan-2-yl(2-fluorobenzyl)amino]-2-oxoethyl}-1,2,3,4-tetrahydroisoquinolin-1-yl)benzoate]
C[C@@H](C(=O)N(Cc1ccccc1)Cc1ccc(O)cc1Cl)N1CCc2ccccc2[C@@H]1c1ccccc1Br [Compound 77, (2S)-N-benzyl-2-[(1R)-1-(2-bromophenyl)-3,4-dihydroisoquinolin-2(1H)-yl]-N-(2-chloro-4-hydroxybenzyl)propanamide]
COc1cccc(CN(C(=O)CN2CCc3ccccc3C2c2ccccc2C)C2Cc3ccccc3C2)c1 (stereo not drawn) [Compound 79, N-(indan-2-yl)-N-(3-methoxybenzyl)-2-[1-(2-methylphenyl)-3,4-dihydroisoquinolin-2(1H)-yl]acetamide]
Cc1cc(C)c(C2c3ccccc3CCN2CC(=O)N(Cc2ccccc2F)C2Cc3ccccc3C2)c(C)c1 (stereo not drawn) [Compound 80, N-(indan-2-yl)-N-(2-fluorobenzyl)-2-(1-mesityl-3,4-dihydroisoquinolin-2(1H)-yl)acetamide]
O=C(CN1CCc2ccccc2C1c1c(F)cccc1F)N(Cc1ccccc1F)C1Cc2ccccc2C1 (stereo not drawn) [Compound 81, 2-[1-(2,6-difluorophenyl)-3,4-dihydroisoquinolin-2(1H)-yl]-N-(indan-2-yl)-N-(2-fluorobenzyl)acetamide]
Cc1ccccc1C1c2ccccc2CCN1CC(=O)N(Cc1ccccc1F)c1ccccc1 (stereo not drawn) [Compound 82, N-(2-fluorobenzyl)-2-[1-(2-methylphenyl)-3,4-dihydroisoquinolin-2(1H)-yl]-N-phenylacetamide]
Cc1ccc2ccccc2c1C1c2ccccc2CCN1CC(=O)N(Cc1ccccc1F)C1Cc2ccccc2C1 (stereo not drawn) [Compound 83, N-(indan-2-yl)-N-(2-fluorobenzyl)-2-[1-(2-methyl-1-naphthyl)-3,4-dihydroisoquinolin-2(1H)-yl]acetamide]
Cc1ccc(Cl)c([C@H]2c3ccccc3CCN2[C@@H](C)C(=O)N(Cc2ccccc2F)C2Cc3ccccc3C2)c1 [Compound 84, (2S)-2-[(1R)-1-(2-chloro-5-methylphenyl)-3,4-dihydroisoquinolin-2(1H)-yl]-N-(indan-2-yl)-N-(2-fluorobenzyl)propanamide]
Cc1ccc(C)c([C@H]2c3ccccc3CCN2[C@@H](C)C(=O)N(Cc2ccccc2F)C2Cc3ccccc3C2)c1 [Compound 85, (2S)-N-(indan-2-yl)-2-[(1S)-1-(2,5-dimethylphenyl)-3,4-dihydroisoquinolin-2(1H)-yl]-N-(2-fluorobenzyl)propanamide]
Cc1ccc(F)c([C@H]2c3ccccc3CCN2[C@@H](C)C(=O)N(Cc2ccccc2F)C2Cc3ccccc3C2)c1 [Compound 86, (2S)-N-(indan-2-yl)-N-(2-fluorobenzyl)-2-[(1R)-1-(2-fluoro-5-methylphenyl)-3,4-dihydroisoquinolin-2(1H)-yl]propanamide]
C[C@@H](C(=O)N(Cc1ccccc1F)Cc1ccccc1F)N1CCc2ccccc2[C@@H]1c1ccccc1Cl [Compound 87, (2S)-2-[(1R)-1-(2-chlorophenyl)-3,4-dihydroisoquinolin-2(1H)-yl]-N,N-bis(2-fluorobenzyl)propanamide]
Cc1ccccc1C1c2ccccc2CCN1CC(=O)N(Cc1ccc(C(=O)O)cc1)C1Cc2ccccc2C1 (stereo not drawn) [Compound 88, 4-[(indan-2-yl{[1-(2-methylphenyl)-3,4-dihydroisoquinolin-2(1H)-yl]acetyl}amino)methyl] benzoic acid]
C[C@@H](C(=O)N(Cc1ccccc1F)C1Cc2ccccc2C1)N1CCc2ccccc2[C@@H]1c1c(F)cccc1F [Compound 89, (2S)-2-[(1R)-1(2,6-difluorophenyl)-3,4-dihydroisoquinolin-2(1H)-yl]-N-(indan-2-yl)-N-(2-fluorobenzyl)propanamide]
C[C@@H](C(=O)N(Cc1ccccc1O)C1Cc2ccccc2C1)N1CCc2ccccc2[C@@H]1c1ccccc1Cl [Compound 90, (2S)-2-[(1R)-1-(2-chlorophenyl)-3,4-dihydroisoquinolin-2(1H)-yl]-N-(indan-2-yl)-N-(2-hydroxybenzyl)propanamide]
C[C@@H](C(=O)N(CCc1ccccc1)Cc1ccccc1F)N1CCc2ccccc2[C@@H]1c1ccccc1Cl [Compound 91, (2S)-2-[(1R)-1-(2-chlorophenyl)-3,4-dihydroisoquinolin-2(1H)-yl]-N-(2-fluorobenzyl)-N-(2-phenylethyl)propanamide]
COc1ccc2c(c1)CC(N(Cc1ccccc1F)C(=O)CN1CCc3ccccc3C1c1ccccc1Cl)C2 (stereo not drawn) [Compound 93, 2-[1-(2-chlorophenyl)-3,4-dihydroisoquinolin-2(1H)-yl]-N-(2-fluorobenzyl)-N-(5-methoxy-indan-2-yl)acetamide]
COc1ccc2c(c1)CC(N(Cc1ccccc1F)C(=O)CN1CCc3ccccc3C1c1ccccc1C(F)(F)F)C2 (stereo not drawn) [Compound 94, N-(2-fluorobenzyl)-N-(5-methoxy-indan-2-yl)-2-[1-[2-(trifluoromethyl)phenyl]-3,4-dihydroisoquinolin-2(1H)-yl]acetamide]
O=C(CN1CCc2ccccc2C1c1c(Cl)cccc1Cl)N(Cc1ccccc1F)C1Cc2ccccc2C1 (stereo not drawn) [Compound 95, 2-[1-(2,6-dichlorophenyl)-3,4-dihydroisoquinolin-2(1H)-yl]-N-(indan-2-yl)-N-(2-fluorobenzyl)acetamide]
O=C(CN1CCc2ccccc2C1c1c(F)cccc1Cl)N(Cc1ccccc1F)C1Cc2ccccc2C1 (stereo not drawn) [Compound 96, 2-[1-(2-chloro-6-fluorophenyl)-3,4-dihydroisoquinolin-2(1H)-yl]-N-(indan-2-yl)-N-(2-fluorobenzyl)acetamide]
C[C@@H](C(=O)N(Cc1c[nH]cn1)C1Cc2ccccc2C1)N1CCc2ccccc2[C@@H]1c1ccccc1Cl [Compound 97, (2S)-2-[(1R)-1-(2-chlorophenyl)-3,4-dihydroisoquinolin-2(1H)-yl]-N-(indan-2-yl)-N-(1H-imidazol-4-ylmethyl)propanamide]
C[C@@H](C(=O)N(Cc1cccc(C(=O)O)c1)C1Cc2ccccc2C1)N1CCc2ccccc2[C@@H]1c1ccccc1Cl [Compound 98, 3{[{(2S)-2-[(1R)-1-(2-chlorophenyl)-3,4-dihydroisoquinolin-2(1H)-yl]propanoyl}(indan-2-yl)amino]methyl}benzoic acid]
O=C(CN1CCc2ccccc2C1c1c(F)cccc1C(F)(F)F)N(Cc1ccccc1F)C1Cc2ccccc2C1 (stereo not drawn) [Compound 99, N-(indan-2-yl)-N-(2-fluorobenzyl)-2-[1-[2-fluoro-6-(trifluoromethyl)phenyl]-3,4-dihydroisoquinolin-2(1H)-yl]acetamide]
Cc1ccccc1C1c2c(F)cccc2CCN1CC(=O)N(Cc1ccccc1F)C1Cc2ccccc2C1 (stereo not drawn) [Compound 100, N-(indan-2-yl)-N-(2-fluorobenzyl)-2-[8-fluoro-1-(2-methylphenyl)-3,4-dihydroisoquinolin-2(1H)-yl]acetamide]
